{"source": "patent US20100248224A1", "about": "“DNA FRAGMENTATION ASSAY” (priority 2006, published 2010)", "type_in_all_cases": "cell-based, human", "key": {"HL-60 cells [1]": {"tested_on": "HL-60 cells", "assay": "DMSO tolerance in HL-60 cells, PicoGreen fluorescent assay", "settings": "20 hr incubation, 0.3 million cells/mL, FIG. 11", "description": "HL-60 cells in mid-log phase (0.3 million cells/mL) were treated with different doses of DMSO for 20 hours. An equal volume of the lysis buffer (20 mM Tris-HCl (pH 8.0), 20 mM EDTA, 0.2% Tween-20 and 5 ug/ml. RNase) was added into the total cell culture. The cell lysate was centrifuged at 2000×g for 20 min. The top portion of the supernatant was withdrawn and DNA content was quantitated using the PicoGreen fluorescent assay."}, "HL-60 cells [2]": {"tested_on": "HL-60 cells", "assay": "ELISA detection of DNA fragmentation in HL-60 cell lysates (Cell Death Detection ELISA kit)", "settings": "HL-60 cells 0.3 million cells/ml, treated 20 hours, FIG. 5, read-out: EC50 value, DNA fragmentation determined by ELISA"}, "HL-60 cells [3]": {"tested_on": "HL-60 cells", "assay": "PicoGreen detection of DNA fragmentation in HL-60 cell lysates", "settings": "for EC50: HL-60 cells 0.3 million cells/ml, treated 20 hours, FIG. 3, read-out: EC50 value, DNA fragmentation detected with PicoGreen", "description": "An equal volume of the lysis buffer (20 mM Tris-HCl (pH 8.0), 20 mM EDTA, 0.2% Tween-20 and 5 ug/mL RNase) was added into the total cell culture. […] The dose response curve of camptothecin using PicoGreen detection (FIG. 3) was compared to propidium iodide detection (FIG. 4)."}, "HL-60 cells [4]": {"tested_on": "HL-60 cells", "assay": "Inhibition of camptothecin-induced DNA fragmentation in HL-60 cells, PicoGreen detection", "settings": "20 hours, FIG. 6", "source_text": "Zinc has been known to inhibit apoptosis induced by both chemical and death-receptor agonists. […] DNA fragments released from cells were quantified with PicoGreen reagent as described above. For samples with camptothecin, without zinc chloride or at low concentrations, fluorescence signal was more than 3 fold of that from samples with DMSO treatment."}}, "data": [{"compound": "C[S+](C)[O-]", "note": "[DMSO, dimethyl sulfoxide]", "values": [{"measurement": "DMSO concentration tolerated by HL-60 cells", "setting": "HL-60 cells [1]", "value": "up to 1%"}]}, {"compound": "CC[C@@]1(O)C(=O)OCc2c1cc1n(c2=O)Cc2cc3ccccc3nc2-1", "note": "[camptothecin, Camptothecin]", "values": [{"measurement": "EC50", "setting": "HL-60 cells [2]; Homo sapiens", "value": 1.11, "unit": "µM"}, {"measurement": "PicoGreen fluorescence intensity", "setting": "HL-60 cells [3]; 3.2 uM for 5.5 hours vs 0.1% DMSO, 0.4 million cells/mL, FIG. 1", "value": "increased"}, {"measurement": "DNA fragmentation, time course", "setting": "HL-60 cells [3]; 3.2 uM, at 4 hours of treatment, FIG. 8", "value": "significant increase in DNA fragmentation"}, {"measurement": "EC50", "setting": "HL-60 cells [3]; Homo sapiens", "value": 1.48, "unit": "µM"}, {"measurement": "fluorescence signal relative to samples with DMSO treatment", "setting": "HL-60 cells [4]; 3.2 μM camptothecin, without zinc chloride or at low concentrations", "value": "more than 3 fold"}]}, {"compound": "[Cl-].[Cl-].[Zn+2]", "note": "[zinc chloride]", "values": [{"measurement": "magnitude of camptothecin-induced DNA fragmentation (level of fluorescent signal)", "setting": "HL-60 cells [4]; zinc chloride 100 uM or higher, with 3.2 μM camptothecin", "value": "decreased to the same level as samples with DMSO treatment only"}]}, {"compound": "Neomycin", "values": [{"measurement": "EC50", "setting": "HL-60 cells [2]", "value": "> 100", "unit": "µM"}, {"measurement": "EC50", "setting": "HL-60 cells [3]", "value": "> 100", "unit": "µM"}]}]}
